Where two headings read alike, the source gives them in different places.
Tests used:
Salmonella TA100 strain [1] = assay type: cell-based, S. typhimurium; conditions: for The number of revertants: mean and standard deviation of 3 plates
Procedure: (§1) In this Example, the genotoxicity of a mutagen was analyzed by qualitatively and quantitatively analyzing mutation patterns in the genome of an organism exposed to the mutagen according to the analysis method of the present invention. The mutagen used was ethylnitrosourea (ENU, CAS No. 759-73-9). A Salmonella TA100 strain which is available for detection of a base pair substitution mutation and is routinely used in the Ames test was used as the organism to be exposed to the mutagen. The experiment was conducted in 3 independent operations to prepare samples (n=3).
(§2) The exposure to the mutagen was carried out in conformity to the preincubation method of the Ames test (K. Mortelmans et al., Mutat. Res. —Fundam. Mol. Mech. Mutagen., 2000, 455, 29-60). TA100 strain was inoculated to 2 mL of Nutrient Broth No. 2 (manufactured by Oxoid Ltd.) and shake-cultured at 37° C. at 180 rpm for 4 hours to obtain a preculture solution having an O.D. 660 value of 1.0 or more. ENU (54%; manufactured by Sigma-Aldrich Co. LLC) was diluted with dimethyl sulfoxide (DMSO; manufactured by Wako Pure Chemical Industries, Ltd.). One hundred μL of the ENU solution diluted into an appropriate concentration, 500 μL of a 0.1 M phosphate buffer, and 100 μL of the preculture solution were added into a test tube (ENU concentration: 67.5, 135, 270, 405, 540, 810, and 1080 μg/tube), and shake-cultured at 100 rpm for 20 minutes in a water bath of 37° C. For a control group, 100 μL of a solvent (DMSO) was added instead of the ENU solution. After the shake culture for 20 minutes, the test tube containing the culture solution was taken out of the water bath. Fifty μL of the culture solution was added to 2 mL of a nutrient broth solution dispensed in advance, and additionally cultured at 37° C. at 180 rpm for 14 hours. Then, 1 mL of the bacterial suspension was recovered and centrifuged at 7,500 rpm for 5 minutes. The supernatant was removed to recover bacterial cells.
For the Ames test, a bacterial suspension exposed to ENU under the same conditions as above was also prepared. Two mL of top agar (containing 1% NaCl, 1% agar, 0.05 mM histidine and 0.05 mM biotin) warmed to 45° C. was added thereto, and the bacterial cells were suspended by vortex. Then, the suspension was layered over a minimal glucose agar medium (Tesmedia (Registered trademark) AN; manufactured by Oriental Yeast Co., Ltd.). The obtained plate was cultured at 37° C. for 48 hours. Then, observed colonies were counted.
The data was indicated by a mean and standard deviation of measurement values from 3 plates.

Salmonella TA100 strain [2] = assay: Mutation analysis by high-throughput sequencing of total DNA of TA100 strain exposed to mutagen; assay type: cell-based, S. typhimurium
Procedure: as §1, §2
From the bacterial cells obtained in the paragraph 1., total DNA was recovered using DNeasy Blood & Tissue Kit (manufactured by Qiagen N.V.) according to the recommended protocol.
The total DNA solutions recovered in the paragraph 2. from the control group and the ENU treatment groups were sequenced using a next-generation sequencer HiSeq 2500 (manufactured by Illumina, Inc.) according to the standard protocol. In this operation, DNA was fragmented into an average length of approximately […] by ultrasonic treatment. Adaptors were added to both ends of each fragment. The fragments were sequenced at a read length of 2×125 bp. 5.0-Gbp nucleotide sequence information per sample was obtained on average.
The editing of read sequences obtained by the sequencing and mutation analysis were conducted using Cutadapt software, PEAR software, Bowtie 2 software, Samtools software, and a program created using a programming language Python according to the conceptual diagram of analysis flow shown in Schematic diagram 2 in the same way as in Example 1. In this Example, PCR duplicates were removed using Picard tools (broadinstitute.github.io/picard/) after mapping using the Bowtie 2 software.
A reference sequence for the mapping using the Bowtie 2 software was constructed on the basis of the genomic sequence of the S. typhimurium TA100 strain. First, DNA was extracted from the TA100 strain and sequenced using a next-generation sequencer HiSeq 2500 (manufactured by Illumina, Inc.) according to the standard protocol. In this operation, the DNA was fragmented into an average length of approximately 300 bp by ultrasonic treatment. Adaptors were added to both ends of each fragment. The fragments were sequenced at a read length of 2×125 bp. The obtained read sequences were mapped to the genomic sequence of a S. typhimurium LT-2 strain, a pSLT plasmid sequence (GCA000006945.2), and a R46 plasmid sequence (NC_003292.1), followed by mutation detection using Samtools software. […]

[3] = ENU 540 μg/tube, control subtracted

## CCN(N=O)C(N)=O [ENU, ethylnitrosourea]
Salmonella TA100 strain [1]; ENU 67.5 μg/plate
  The number of revertants: 258 ± 2.5
Salmonella TA100 strain [1]; ENU 135 μg/plate
  The number of revertants: 659 ± 113.9
Salmonella TA100 strain [1]; ENU 270 μg/plate
  The number of revertants: 3320 ± 734.4
Salmonella TA100 strain [1]; ENU 405 μg/plate
  The number of revertants: 4994 ± 455.6
Salmonella TA100 strain [1]; ENU 540 μg/plate
  The number of revertants: 5051 ± 173.0
Salmonella TA100 strain [1]; ENU 810 μg/plate, growth inhibition on plate
  The number of revertants: 3102 ± 883.0
Salmonella TA100 strain [1]; ENU 1080 μg/plate, growth inhibition on plate
  The number of revertants: 503 ± 190.9
Salmonella TA100 strain [1]; ENU 67.5 to 1080 μg/plate against DMSO
  Change in the number of revertants by exposure: Increase in the number of revertants was found
Salmonella TA100 strain [2]; 3-base context, FIG. 7 and FIG. 8
  Increased mutation frequencies by sequence context analysis (96 mutation types), C>T mutation: larger increase in mutation frequency was found in a context with a pyrimidine base (C or T) located at 3′ side to the C
Salmonella TA100 strain [2]; [3]
  Ratio of AT > CG mutation pattern to the whole of increased mutation frequencies (mutation spectrum): 2.36%
  Ratio of AT > GC mutation pattern to the whole of increased mutation frequencies (mutation spectrum): 12.4%
  Ratio of AT > TA mutation pattern to the whole of increased mutation frequencies (mutation spectrum): 11.5%
  Ratio of GC > AT mutation pattern to the whole of increased mutation frequencies (mutation spectrum): 73.7%
Salmonella TA100 strain [2]; ENU 135, 270, 405 and 540 μg/tube, FIG. 4A
  Increased mutation frequencies of GC base pair mutation patterns: increase in the frequency of GC>AT mutation was found
Salmonella TA100 strain [2]; ENU 135, 270, 405 and 540 μg/tube, FIG. 4B
  Increased mutation frequencies of AT base pair mutation patterns: increase in the frequencies of AT>TA and AT>GC mutations was mainly found

Source: US20190259469A1, “Method for Evaluating Genotoxicity of Substance” (priority 2017, published 2019)
